From patent US20230067942A1, “IMPROVEMENT IN PULMONARY ARTERIAL […] INHALED NITRIC OXIDE (iNO) TREATMENT” (BELLEROPHON THERAPEUTICS, priority 2020, published 2023)
Entries after “also recorded” stand apart in the source; their conditions may differ.

Tested on: patients with PH associated with PF (PH-PF)
Assay: Acute escalating doses of pulsed iNO; hemodynamics by right heart catheterization (RHC) in PH-PF patients
Type: in vivo, human
Details: for Pulmonary arterial compliance (PAC), change from baseline: nine PH-PF patients on oxygen, median change
Description: FIG. 1 depicts the study design for acute iNO dose escalation. Nine PH-PF subjects were administered escalating doses of pulsed iNO (iNO30 to iNO75 mcg/kg IBW/hrs) with continuous oxygen.
FIG. 2, comprising FIGS. 2A-2C, are graphs depicting pulmonary arterial compliance, or PAC (FIG. 2A), pulmonary vascular resistance, or PVR (FIG. 2B), and mean pulmonary arterial pressure, or mPAP (FIG. 2C) for inhaled nitric oxide at 30 mcg/kg IBW/hr (iNO30), 45 mcg/kg IBW/hr (iNO45), and 75 mcg/kg IBW/hr (iNO75). The data is based on nine pulmonary hypertension—interstitial lung disease (ILD) patients. Bar graphs represent median change from baseline at each assessment for all available subjects. […] Statistical analysis was based on the Wilcoxon Rank Test.
This study was performed to determine whether increasing doses of pulsed iNO can improve PAC in patients with PH-PF on long-term oxygen therapy with intermediate or high probability of pulmonary hypertension (PH) as determined by echocardiography. Nine patients were acutely challenged with escalating doses of iNO (iNO30, iNO45, and iNO75) over a 90 minute period. Each dose was administered for 10 minutes, with 10 minute “washout” periods between doses. Baseline measurements were taken from timepoint 0-30 minutes. iNO30 was dosed at 30 mcg/kg IBW/hrs from timepoint 30-40 minutes, iNO45 at 45 mcg/kg IBW/hrs from timepoint 50-60 minutes, and iNO75 was dosed at 75 mcg/kg IBW/hrs from timepoint 70-80 minutes (see FIG. 1). The demographics of the patient population is described in Table 1, and Baseline Hemodynamics in Table 2, below.
PAC was derived by stroke volume divided by (SPAP-DPAP) collected during right heart catheterization (RHC). Patients were on sufficient supplemental oxygen at baseline to maintain an SpO2 of at least 92% at rest. Upon completion of the RHC, subjects were offered the opportunity to continue on to chronic iNO therapy in an extension study. 6 minute walk distance (6MWD) was assessed prior to RHC treatment in the extension study.

[1] = all subjects, doses not separated
[2] = iNO30 (30 mcg/kg IBW/hr, pulsed, 10 min), nine PH-PF patients, Wilcoxon Rank Test
[3] = iNO45 (45 mcg/kg IBW/hr, pulsed, 10 min), nine PH-PF patients, Wilcoxon Rank Test
[4] = iNO75 (75 mcg/kg IBW/hr, pulsed, 10 min), nine PH-PF patients, Wilcoxon Rank Test

[N]=O [iNO, nitric oxide]
PAC on pulsed iNO versus average baseline [1]: increase
PVR on pulsed iNO versus average baseline [1]: reduction; also recorded: statistically and clinically significant improvements
mPAP on pulsed iNO versus average baseline [1]: statistically and clinically significant improvements; also recorded: reduction
PAC on pulsed iNO versus average baseline (all subjects, doses not separated, listed as Inhaled NO): improves PAC
Pulmonary arterial compliance (PAC), change from baseline (iNO30 (30 mcg/kg IBW/hr, pulsed, 10 min), Wilcoxon Rank Test): improved with significance
Mean pulmonary arterial pressure (mPAP), change from baseline [2]: statistically significant improvement; also recorded: improved with significance
Pulmonary vascular resistance (PVR), change from baseline [2]: statistically significant improvement; also recorded: improved with significance
Pulmonary arterial compliance (PAC), change from baseline (iNO45 (45 mcg/kg IBW/hr, pulsed, 10 min), Wilcoxon Rank Test): improved with significance
Mean pulmonary arterial pressure (mPAP), change from baseline [3]: statistically significant improvement; also recorded: improved with significance
Pulmonary vascular resistance (PVR), change from baseline [3]: statistically significant improvement; also recorded: improved with significance
Pulmonary vascular resistance (PVR), further change between iNO30 and iNO45 doses (iNO45 versus iNO30, nine PH-PF patients, Wilcoxon Rank Test): additional statistically significant improvement; also recorded: further improved with significance
Pulmonary arterial compliance (PAC), change from baseline (iNO75 (75 mcg/kg IBW/hr, pulsed, 10 min), Wilcoxon Rank Test): improvement in PAC
Mean pulmonary arterial pressure (mPAP), change from baseline [4]: statistically significant improvement; also recorded: improved with significance
Pulmonary vascular resistance (PVR), change from baseline [4]: statistically significant improvement; also recorded: improved with significance
